Key:
Glucocorticoid receptor = target: T1, Glucocorticoid receptor (Homo sapiens, UniProt P04150)
T1 sequence (P04150 whole entry): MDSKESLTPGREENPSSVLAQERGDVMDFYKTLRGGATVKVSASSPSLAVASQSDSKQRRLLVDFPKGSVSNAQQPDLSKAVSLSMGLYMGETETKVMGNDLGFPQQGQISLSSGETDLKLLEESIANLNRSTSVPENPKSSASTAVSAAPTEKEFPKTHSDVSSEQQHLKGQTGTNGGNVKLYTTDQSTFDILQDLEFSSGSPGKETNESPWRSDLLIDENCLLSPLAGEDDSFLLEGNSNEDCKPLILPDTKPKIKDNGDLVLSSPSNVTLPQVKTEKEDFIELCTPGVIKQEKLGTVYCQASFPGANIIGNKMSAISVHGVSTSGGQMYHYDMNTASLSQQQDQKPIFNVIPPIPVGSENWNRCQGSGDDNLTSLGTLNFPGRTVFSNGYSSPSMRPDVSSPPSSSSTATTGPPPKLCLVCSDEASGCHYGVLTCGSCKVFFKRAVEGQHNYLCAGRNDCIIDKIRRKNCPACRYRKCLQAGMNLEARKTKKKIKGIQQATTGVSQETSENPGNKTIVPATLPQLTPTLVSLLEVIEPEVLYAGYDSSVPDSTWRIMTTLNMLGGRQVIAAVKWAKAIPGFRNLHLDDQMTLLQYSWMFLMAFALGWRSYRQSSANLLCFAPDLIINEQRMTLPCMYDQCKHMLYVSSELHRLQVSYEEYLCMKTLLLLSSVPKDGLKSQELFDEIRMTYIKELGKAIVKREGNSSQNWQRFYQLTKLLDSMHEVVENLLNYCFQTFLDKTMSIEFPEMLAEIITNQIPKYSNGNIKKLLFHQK

[1] = target: Kappa-type opioid receptor (Homo sapiens, UniProt P41145)
Endothelin-1 receptor = target: T2, Endothelin-1 receptor (Homo sapiens, UniProt P25101)
T2 sequence (P25101 whole entry): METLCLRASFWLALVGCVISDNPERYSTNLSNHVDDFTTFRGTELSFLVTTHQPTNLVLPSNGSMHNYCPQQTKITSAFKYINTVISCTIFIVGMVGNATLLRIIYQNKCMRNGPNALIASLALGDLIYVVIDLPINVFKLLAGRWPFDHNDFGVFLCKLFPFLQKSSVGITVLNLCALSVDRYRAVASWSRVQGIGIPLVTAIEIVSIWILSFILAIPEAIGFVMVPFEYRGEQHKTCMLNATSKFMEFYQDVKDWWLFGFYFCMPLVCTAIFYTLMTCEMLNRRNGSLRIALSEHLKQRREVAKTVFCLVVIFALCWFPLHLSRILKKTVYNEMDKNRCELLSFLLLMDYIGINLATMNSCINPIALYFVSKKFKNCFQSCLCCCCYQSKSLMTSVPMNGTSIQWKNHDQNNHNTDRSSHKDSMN

[2] = target: T3, Alpha-2A adrenergic receptor (Homo sapiens, UniProt P08913); type: functional, cell-based
T3 sequence (P08913 whole entry): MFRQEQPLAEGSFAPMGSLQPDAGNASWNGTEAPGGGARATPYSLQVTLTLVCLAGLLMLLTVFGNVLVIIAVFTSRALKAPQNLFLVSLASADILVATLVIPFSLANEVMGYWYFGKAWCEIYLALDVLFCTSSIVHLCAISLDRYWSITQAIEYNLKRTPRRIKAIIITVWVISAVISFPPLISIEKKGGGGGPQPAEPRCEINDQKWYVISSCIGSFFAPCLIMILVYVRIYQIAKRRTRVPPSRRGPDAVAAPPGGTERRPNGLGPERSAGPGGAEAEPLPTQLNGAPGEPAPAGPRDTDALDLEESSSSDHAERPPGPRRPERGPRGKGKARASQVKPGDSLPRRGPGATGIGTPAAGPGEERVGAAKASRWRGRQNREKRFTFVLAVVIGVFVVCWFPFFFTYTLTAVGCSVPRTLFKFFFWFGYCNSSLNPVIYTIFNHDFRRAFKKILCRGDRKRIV

[3] = target: 5-hydroxytryptamine receptor 2A (Homo sapiens, UniProt P28223); type: functional, cell-based
[4] = target: Beta-2 adrenergic receptor (Homo sapiens, UniProt P07550)
[5] = target: Neuronal acetylcholine receptor subunit alpha-4 (Homo sapiens, UniProt P43681)
[6] = target: T4, Alpha-2B adrenergic receptor (Homo sapiens, UniProt P18089)
T4 sequence (P18089 whole entry): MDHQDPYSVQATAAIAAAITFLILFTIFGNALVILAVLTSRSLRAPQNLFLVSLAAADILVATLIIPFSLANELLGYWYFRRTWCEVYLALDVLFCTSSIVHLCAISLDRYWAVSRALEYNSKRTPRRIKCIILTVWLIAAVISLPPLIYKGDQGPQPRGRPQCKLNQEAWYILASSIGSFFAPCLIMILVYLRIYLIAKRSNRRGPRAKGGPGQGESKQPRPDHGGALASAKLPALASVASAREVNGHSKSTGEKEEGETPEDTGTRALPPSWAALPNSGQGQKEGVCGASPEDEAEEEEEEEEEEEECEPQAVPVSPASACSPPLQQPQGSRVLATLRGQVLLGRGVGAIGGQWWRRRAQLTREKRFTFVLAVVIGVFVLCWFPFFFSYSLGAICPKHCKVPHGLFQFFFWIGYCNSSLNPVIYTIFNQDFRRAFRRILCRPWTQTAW

[7] = target: T5, Type-1 angiotensin II receptor (Homo sapiens, UniProt P30556)
T5 sequence (P30556 whole entry): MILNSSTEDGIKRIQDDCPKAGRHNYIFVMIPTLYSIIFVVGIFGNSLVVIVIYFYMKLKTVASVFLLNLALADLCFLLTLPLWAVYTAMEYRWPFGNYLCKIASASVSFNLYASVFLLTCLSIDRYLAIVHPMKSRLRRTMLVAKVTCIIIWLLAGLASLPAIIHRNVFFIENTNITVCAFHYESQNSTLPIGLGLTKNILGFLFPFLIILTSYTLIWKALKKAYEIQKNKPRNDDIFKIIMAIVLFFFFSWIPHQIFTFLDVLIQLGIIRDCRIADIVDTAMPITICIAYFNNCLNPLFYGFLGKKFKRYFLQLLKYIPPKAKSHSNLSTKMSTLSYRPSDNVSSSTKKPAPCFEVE

Melanocortin receptor 3 = Melanocortin receptor 3 (Homo sapiens, UniProt P41968)
[8] = target: Voltage-dependent L-type calcium channel subunit alpha-1C (Rattus norvegicus, UniProt P22002); type: functional
[9] = target: Muscarinic acetylcholine receptor M3 (Homo sapiens, UniProt P20309)
[10] = target: cGMP-inhibited 3',5'-cyclic phosphodiesterase 3A (Homo sapiens, UniProt Q14432); type: functional
Also: assay procedure not described here.

Chain of Kappa-type opioid receptor (P41145 whole entry): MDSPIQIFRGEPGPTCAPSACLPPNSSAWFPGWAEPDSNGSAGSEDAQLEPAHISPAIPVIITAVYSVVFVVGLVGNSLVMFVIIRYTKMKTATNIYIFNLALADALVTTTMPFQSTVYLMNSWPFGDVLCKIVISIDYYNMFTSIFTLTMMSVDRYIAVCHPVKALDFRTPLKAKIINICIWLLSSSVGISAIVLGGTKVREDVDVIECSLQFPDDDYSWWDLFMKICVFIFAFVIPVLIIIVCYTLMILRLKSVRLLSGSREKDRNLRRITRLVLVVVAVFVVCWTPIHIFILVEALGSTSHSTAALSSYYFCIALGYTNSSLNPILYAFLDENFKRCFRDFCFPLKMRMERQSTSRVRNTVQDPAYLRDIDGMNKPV
Chain of cGMP-inhibited 3',5'-cyclic phosphodiesterase 3A (Q14432 whole entry): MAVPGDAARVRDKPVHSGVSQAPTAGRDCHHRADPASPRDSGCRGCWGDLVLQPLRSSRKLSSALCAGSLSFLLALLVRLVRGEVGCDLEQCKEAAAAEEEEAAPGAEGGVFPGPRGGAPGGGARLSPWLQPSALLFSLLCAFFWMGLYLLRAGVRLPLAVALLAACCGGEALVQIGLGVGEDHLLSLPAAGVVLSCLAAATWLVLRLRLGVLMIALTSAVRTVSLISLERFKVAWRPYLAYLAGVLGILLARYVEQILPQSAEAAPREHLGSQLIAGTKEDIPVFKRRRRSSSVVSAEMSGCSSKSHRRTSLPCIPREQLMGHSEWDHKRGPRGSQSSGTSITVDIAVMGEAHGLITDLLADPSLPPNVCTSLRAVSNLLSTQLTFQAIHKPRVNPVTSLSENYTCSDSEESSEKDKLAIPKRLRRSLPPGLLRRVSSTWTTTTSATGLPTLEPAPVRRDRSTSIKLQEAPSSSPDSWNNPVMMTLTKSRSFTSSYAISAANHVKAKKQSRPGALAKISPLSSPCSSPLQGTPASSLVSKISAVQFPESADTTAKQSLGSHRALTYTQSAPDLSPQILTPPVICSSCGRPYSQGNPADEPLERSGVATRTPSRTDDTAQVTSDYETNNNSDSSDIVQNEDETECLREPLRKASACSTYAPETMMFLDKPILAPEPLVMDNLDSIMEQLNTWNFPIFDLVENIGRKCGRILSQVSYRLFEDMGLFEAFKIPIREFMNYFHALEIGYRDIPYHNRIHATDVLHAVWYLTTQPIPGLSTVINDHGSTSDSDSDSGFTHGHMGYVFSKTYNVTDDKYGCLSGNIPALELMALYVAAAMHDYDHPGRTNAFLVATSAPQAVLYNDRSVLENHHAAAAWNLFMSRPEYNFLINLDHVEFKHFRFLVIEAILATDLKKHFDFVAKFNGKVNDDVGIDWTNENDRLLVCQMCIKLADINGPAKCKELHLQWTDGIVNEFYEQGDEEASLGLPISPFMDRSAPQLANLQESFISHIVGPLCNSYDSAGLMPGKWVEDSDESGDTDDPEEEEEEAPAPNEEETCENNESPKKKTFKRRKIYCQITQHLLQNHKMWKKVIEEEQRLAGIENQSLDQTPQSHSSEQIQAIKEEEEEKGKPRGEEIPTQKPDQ
Chain of Neuronal acetylcholine receptor subunit alpha-4 (P43681 whole entry): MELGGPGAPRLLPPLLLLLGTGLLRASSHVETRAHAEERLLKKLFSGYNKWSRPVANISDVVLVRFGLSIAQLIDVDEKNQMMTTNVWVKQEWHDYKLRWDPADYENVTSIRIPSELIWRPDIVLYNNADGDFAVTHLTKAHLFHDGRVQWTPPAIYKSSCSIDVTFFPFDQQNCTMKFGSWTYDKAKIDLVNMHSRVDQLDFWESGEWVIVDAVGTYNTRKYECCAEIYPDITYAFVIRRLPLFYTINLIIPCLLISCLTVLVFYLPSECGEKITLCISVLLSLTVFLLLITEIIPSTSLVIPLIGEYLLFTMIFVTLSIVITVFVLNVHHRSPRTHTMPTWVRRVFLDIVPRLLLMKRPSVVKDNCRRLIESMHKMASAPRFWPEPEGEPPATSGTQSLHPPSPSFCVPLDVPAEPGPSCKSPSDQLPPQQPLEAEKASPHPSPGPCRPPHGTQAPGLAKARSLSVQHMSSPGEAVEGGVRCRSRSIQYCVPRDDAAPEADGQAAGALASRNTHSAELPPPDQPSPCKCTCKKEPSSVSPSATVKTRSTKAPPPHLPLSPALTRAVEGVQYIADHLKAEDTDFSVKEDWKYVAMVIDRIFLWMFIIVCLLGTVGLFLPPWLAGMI
Chain of Melanocortin receptor 3 (P41968 whole entry): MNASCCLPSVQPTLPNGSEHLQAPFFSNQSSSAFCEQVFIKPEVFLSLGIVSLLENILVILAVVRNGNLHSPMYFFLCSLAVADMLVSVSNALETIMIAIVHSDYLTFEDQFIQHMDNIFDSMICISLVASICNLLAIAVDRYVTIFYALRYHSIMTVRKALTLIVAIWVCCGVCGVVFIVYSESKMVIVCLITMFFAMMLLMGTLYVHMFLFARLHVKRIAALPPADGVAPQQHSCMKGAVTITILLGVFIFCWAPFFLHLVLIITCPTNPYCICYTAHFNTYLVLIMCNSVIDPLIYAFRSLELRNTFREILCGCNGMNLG
Chain of Muscarinic acetylcholine receptor M3 (P20309 whole entry): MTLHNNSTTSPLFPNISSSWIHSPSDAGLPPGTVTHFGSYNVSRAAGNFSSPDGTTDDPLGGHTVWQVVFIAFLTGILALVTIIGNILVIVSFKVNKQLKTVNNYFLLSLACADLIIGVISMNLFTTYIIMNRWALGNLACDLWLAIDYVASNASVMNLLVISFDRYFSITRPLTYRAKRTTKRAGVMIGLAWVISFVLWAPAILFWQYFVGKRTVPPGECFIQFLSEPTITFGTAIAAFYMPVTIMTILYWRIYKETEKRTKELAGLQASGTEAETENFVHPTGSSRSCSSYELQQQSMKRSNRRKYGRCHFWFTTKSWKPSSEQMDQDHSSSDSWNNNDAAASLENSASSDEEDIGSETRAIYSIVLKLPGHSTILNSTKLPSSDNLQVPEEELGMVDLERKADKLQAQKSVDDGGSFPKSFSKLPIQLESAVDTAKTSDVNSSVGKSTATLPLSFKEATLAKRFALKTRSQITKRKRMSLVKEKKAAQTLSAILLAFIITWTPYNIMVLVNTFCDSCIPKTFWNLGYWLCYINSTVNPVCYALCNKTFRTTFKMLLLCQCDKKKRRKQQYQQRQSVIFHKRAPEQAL
Chain of Beta-2 adrenergic receptor (P07550 whole entry): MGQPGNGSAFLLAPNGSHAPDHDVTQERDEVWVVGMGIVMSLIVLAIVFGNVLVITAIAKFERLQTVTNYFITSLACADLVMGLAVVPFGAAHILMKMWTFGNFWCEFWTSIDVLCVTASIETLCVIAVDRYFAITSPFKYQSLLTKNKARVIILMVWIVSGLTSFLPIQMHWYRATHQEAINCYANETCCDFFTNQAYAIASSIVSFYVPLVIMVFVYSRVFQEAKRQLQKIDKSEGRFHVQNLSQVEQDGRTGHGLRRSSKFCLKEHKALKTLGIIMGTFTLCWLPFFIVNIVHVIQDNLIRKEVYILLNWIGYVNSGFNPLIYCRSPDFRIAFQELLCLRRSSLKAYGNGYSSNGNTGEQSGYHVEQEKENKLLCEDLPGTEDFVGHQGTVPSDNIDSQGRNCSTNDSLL
Chain of 5-hydroxytryptamine receptor 2A (P28223 whole entry): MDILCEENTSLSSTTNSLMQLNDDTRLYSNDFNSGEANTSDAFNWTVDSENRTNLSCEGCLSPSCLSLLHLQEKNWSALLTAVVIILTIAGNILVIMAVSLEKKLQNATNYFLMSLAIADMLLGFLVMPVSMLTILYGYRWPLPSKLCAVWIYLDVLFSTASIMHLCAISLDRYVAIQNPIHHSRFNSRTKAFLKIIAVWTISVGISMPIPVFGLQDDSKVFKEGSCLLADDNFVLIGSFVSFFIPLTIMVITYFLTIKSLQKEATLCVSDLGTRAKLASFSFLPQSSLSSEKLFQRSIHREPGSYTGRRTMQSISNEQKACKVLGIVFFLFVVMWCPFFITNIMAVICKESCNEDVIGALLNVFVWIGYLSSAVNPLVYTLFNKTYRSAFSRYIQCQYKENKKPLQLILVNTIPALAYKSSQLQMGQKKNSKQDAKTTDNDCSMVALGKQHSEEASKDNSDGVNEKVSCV

How did the AC50 (Glucocorticoid receptor) turn out when CN1C(=O)C(O)N=C(c2ccccc2Cl)c2cc(Cl)ccc21 (stereo not drawn) [LORMETAZEPAM] was run?
The AC50 was over 30 µM.

And the AC50 [1]?
The AC50 was 8.1 µM.

And the AC50 (Endothelin-1 receptor)?
The AC50 was over 30 µM.

What about the AC50 [2] of the same molecule?
The AC50 was 16 µM.

What about the AC50 [3] of the same molecule?
Its AC50 is over 30 µM.

What about the AC50 [4] of the same molecule?
The AC50 was over 30 µM.

What about the AC50 [5] of the same molecule?
The AC50 was over 30 µM.

What about the AC50 [6] of the same molecule?
The AC50 was over 30 µM.

What about the AC50 [7] of the same molecule?
The AC50 was over 30 µM.

What about the AC50 (Melanocortin receptor 3) of the same molecule?
The AC50 was over 30 µM.

And the AC50 [8]?
Its AC50 is over 30 µM.

And the AC50 [9]?
The AC50 was over 30 µM.

What about the AC50 [10] of the same molecule?
The AC50 was over 10 µM.

CC(C)=CCC/C(C)=C/C=C/C(C)=C/C=C/C(C)=C/C=C/C=C(C)/C=C/C=C(C)/C=C/C=C(\C)CCC=C(C)C [LYCOPENE] was tested. Which AC50 (Glucocorticoid receptor) did it give?
Its AC50 is over 30 µM.

And the AC50 [1]?
Its AC50 is over 30 µM.

And the AC50 (Endothelin-1 receptor)?
The AC50 was over 30 µM.

And the AC50 [2]?
Its AC50 is over 30 µM.

What about the AC50 [3] of the same molecule?
The AC50 was over 30 µM.

What about the AC50 [4] of the same molecule?
The AC50 was over 30 µM.

And the AC50 [5]?
The AC50 was over 30 µM.

And the AC50 [6]?
Its AC50 is over 30 µM.

And the AC50 [7]?
The AC50 was over 30 µM.

And the AC50 (Melanocortin receptor 3)?
The AC50 was over 30 µM.

What about the AC50 [8] of the same molecule?
The AC50 was over 30 µM.

What about the AC50 [9] of the same molecule?
The AC50 was over 30 µM.

And the AC50 [10]?
The AC50 was over 30 µM.

Which AC50 (Glucocorticoid receptor) does the source give for CCOC(=O)[N-]c1cn(N2CCOCC2)n[o+]1 [MOLSIDOMINE] here?
The AC50 was over 30 µM.

What about the AC50 [1] of the same molecule?
The AC50 was over 30 µM.

What about the AC50 (Endothelin-1 receptor) of the same molecule?
The AC50 was over 30 µM.

What about the AC50 [2] of the same molecule?
Its AC50 is over 30 µM.

What about the AC50 [3] of the same molecule?
The AC50 was over 30 µM.

What about the AC50 [4] of the same molecule?
Its AC50 is over 30 µM.

What about the AC50 [5] of the same molecule?
Its AC50 is over 30 µM.

What about the AC50 [6] of the same molecule?
Its AC50 is over 30 µM.

What about the AC50 [7] of the same molecule?
The AC50 was over 30 µM.

What about the AC50 (Melanocortin receptor 3) of the same molecule?
The AC50 was over 30 µM.

And the AC50 [8]?
The AC50 was over 30 µM.

And the AC50 [9]?
Its AC50 is over 30 µM.

And the AC50 [10]?
Its AC50 is over 30 µM.

Which results are given for OC(CNCC(O)C1CCc2cc(F)ccc2O1)C1CCc2cc(F)ccc2O1 (stereo not drawn) [NEBIVOLOL]?
AC50 (Glucocorticoid receptor): > 30 µM; AC50 [1]: 10 µM; AC50 (Endothelin-1 receptor): > 30 µM; AC50 [2]: > 30 µM; AC50 [3]: 7.1 µM; AC50 [4]: 0.07 µM; AC50 [5]: > 30 µM; AC50 [6]: 4.5 µM; AC50 [7]: > 30 µM; AC50 (Melanocortin receptor 3): 8.7 µM; AC50 [8]: 24 µM; AC50 [9]: > 30 µM; AC50 [10]: > 30 µM

How did the AC50 (Glucocorticoid receptor) turn out when COc1cc2c(N)nc(N3CCN(C(=O)OCC(C)(C)O)CC3)nc2c(OC)c1OC [TRIMAZOSIN] was run?
Its AC50 is over 30 µM.

And the AC50 [1]?
The AC50 was over 30 µM.

What about the AC50 (Endothelin-1 receptor) of the same molecule?
Its AC50 is over 30 µM.

What about the AC50 [2] of the same molecule?
The AC50 was over 30 µM.

And the AC50 [3]?
Its AC50 is over 30 µM.

And the AC50 [4]?
Its AC50 is over 30 µM.

What about the AC50 [5] of the same molecule?
The AC50 was over 30 µM.

What about the AC50 [6] of the same molecule?
The AC50 was over 30 µM.

What about the AC50 [7] of the same molecule?
Its AC50 is over 30 µM.

And the AC50 (Melanocortin receptor 3)?
Its AC50 is over 30 µM.

What about the AC50 [8] of the same molecule?
Its AC50 is over 30 µM.

What about the AC50 [9] of the same molecule?
The AC50 was over 30 µM.

And the AC50 [10]?
The AC50 was over 30 µM.

C=CCN1CCCC1CNC(=O)c1cc(S(N)(=O)=O)cc(OC)c1OC (stereo not drawn) [VERALIPRIDE] was tested. Which AC50 (Glucocorticoid receptor) did it give?
Its AC50 is over 30 µM.

And the AC50 [1]?
The AC50 was over 30 µM.

And the AC50 (Endothelin-1 receptor)?
The AC50 was over 30 µM.

And the AC50 [2]?
Its AC50 is over 30 µM.

What about the AC50 [3] of the same molecule?
Its AC50 is 24 µM.

And the AC50 [4]?
Its AC50 is over 30 µM.

And the AC50 [5]?
Its AC50 is over 30 µM.

And the AC50 [6]?
The AC50 was 3.2 µM.

What about the AC50 [7] of the same molecule?
The AC50 was over 30 µM.

What about the AC50 (Melanocortin receptor 3) of the same molecule?
The AC50 was over 30 µM.

And the AC50 [8]?
The AC50 was over 30 µM.

And the AC50 [9]?
The AC50 was over 30 µM.

And the AC50 [10]?
The AC50 was over 10 µM.

Reference: ChEMBL document CHEMBL5291721, “A preclinical secondary pharmacology resource illuminates target-adverse drug reaction associations of marketed drugs” (Nat Commun, 2023)
